According to patent US20220249480A1, “APPLICATION OF FLUORO-SUBSTITUTED 2-AMINOTHIAZOLE-5-AROMATIC CARBOXAMIDE” (HUNAN WARRANT PHARMACEUTICAL CO., LTD, priority 2019, published 2022):

Key:
in vitro = conditions: human, microsomes; for CLint scaled at 1 μM / half-life at 1 μM: pH 7.4
Procedure: Test compound concentration: 1.0 μM
Buffer solution: 0.05 M phosphate buffer solution (pH 7.4)
Human liver microsomes: Corning® UltraPool™ HLM 150, 20 mg/mL
NADPH concentration: 1.0 mM
Total reaction volume: 850 μL
Incubation temperature: 37° C.
Pre-incubation time: 5 min (no NADPH added)
Sampling time: 0, 5, 10, 15, 20 and 30 min (0, 15 and 30 min for control group)
Sampling volume: 85 μL per time point
Test compounds: Verapamil, Dasatinib, and the compound of Formula I
a) Solutions of 10 mM test compounds in DMSO were diluted to 100 μM using acetonitrile:water (50:50).
c) 2.5 mM NADPH solution was formulated.
d) The liver microsomal protein, buffer solution, and test compound were pipetted sequentially into 1.5 ml incubation tubes according to the volume in the experimental design table, and incubated at 37° C. for 5 min with constant shaking.
e) 85 μL of the quenching reagent was added into a 250 μL quenching vial which was then placed on an ice bath.
f) The reaction was initiated by adding NADPH solution, and 85 μL sample was immediately taken and mixed evenly in the quenching vial with controlled incubation and quenching, this is referred to 0 min sampling point. The sample was capped, vortexed and centrifuged at 4° C.
g) The quenching solution was placed at 4° C. for 10 min for the precipitation of the protein.
h) The operations of other sampling points was similar to that of the 0 min sampling point.
i) The sample quenching reaction mixture solution was thoroughly mixed evenly and centrifuged at 14000 rpm for 10 min at room temperature.
j) The supernatant (˜100 μl) was pipetted for LC-MS analysis.
Instrument: Waters® ACQUITY HPLC-Xevo G2-XS QTof
Chromatographic column: ACQUITY UPLC® BEH C18 column 2.1×50 mm, 1.7 μm
Mobile phase: mobile phase A was 0.1% formic acid in water and mobile phase B was 0.1% formic acid in acetonitrile.
The amount of the parent compound at each time point was determined based on the peak area ratio (compound area/warfarin area).
The intrinsic clearance (CLint) was calculated by the following equation:
V(μL/mg)=volume of incubation (μL)/protein amount in the incubation (mg)

ABL1 = biological target: T1, ABL1 (Homo sapiens, UniProt P00519); experiment: In vitro kinase inhibition activity (33P-ATP radiometric filter assay), ABL1; assay type: biochemical
T1 construct: purchased Invitrogen
Procedure: (§1) Test group: 50 μl DMSO was used to dissolve the compound of Formula I and Dasatinib, respectively, and the final drug concentration was 10 mM.
(§2) Starting concentration of drugs in the test group: 1 μM
(§3) Buffer solution conditions: 20 mM Hepes (pH 7.5), 10 mM MgCl2, 1 mM EGTA, 0.02% Brij35, 0.02 mg/ml BSA, 0.1 mM Na3VO4, 2 mM DTT, 1% DMSO.
(§4) Note: Required enzyme cofactor were added separately to each kinase reaction.
(§5) a) An indicated substrate was prepared in a freshly made reaction buffer.
(§6) b) Any required enzyme cofactors were added into the substrate solution described above.
(§7) c) The indicated kinase was added into the substrate solution and gently mixed.
(§8) d) The test drugs were added into the kinase reaction mixture using Echo 550.
(§9) e) ^33P-ATP (specific radioactivity 0.01 μCi/μl) was added into the reaction mixture, and the reaction was initiated.
(§10) g) The reaction was spotted onto P81 ion-exchange paper.
(§11) h) The filter was washed with 0.75% phosphoric acid.
(§12) i) The radioactive phosphorylated substrate remaining on the filter paper was measured.
(§13) Kinase activity data are expressed as the percent of the remaining kinase activity in the test samples compared with the reactions of the vehicle (dimethyl sulfoxide). IC50 values and curve fitting were obtained using Prism4 software (GraphPad).

BTK = biological target: T2, BTK (Homo sapiens, UniProt Q06187); experiment: In vitro kinase inhibition activity (33P-ATP radiometric filter assay), BTK; assay type: biochemical
T2 construct: purchased Invitrogen
Procedure: as §1, §2, §3, §4, §5, §6, §7, §8, §9, §10, §11, §12, §13

BTK (C481S) = biological target: T3, BTK (C481S) (Homo sapiens, UniProt Q06187, C481S); experiment: In vitro kinase inhibition activity (33P-ATP radiometric filter assay), BTK (C481S); assay type: biochemical
T3 construct: purchased Signal Chem
Procedure: as §1, §2, §3, §4, §5, §6, §7, §8, §9, §10, §11, §12, §13

T3 sequence (Q06187 whole entry C481S): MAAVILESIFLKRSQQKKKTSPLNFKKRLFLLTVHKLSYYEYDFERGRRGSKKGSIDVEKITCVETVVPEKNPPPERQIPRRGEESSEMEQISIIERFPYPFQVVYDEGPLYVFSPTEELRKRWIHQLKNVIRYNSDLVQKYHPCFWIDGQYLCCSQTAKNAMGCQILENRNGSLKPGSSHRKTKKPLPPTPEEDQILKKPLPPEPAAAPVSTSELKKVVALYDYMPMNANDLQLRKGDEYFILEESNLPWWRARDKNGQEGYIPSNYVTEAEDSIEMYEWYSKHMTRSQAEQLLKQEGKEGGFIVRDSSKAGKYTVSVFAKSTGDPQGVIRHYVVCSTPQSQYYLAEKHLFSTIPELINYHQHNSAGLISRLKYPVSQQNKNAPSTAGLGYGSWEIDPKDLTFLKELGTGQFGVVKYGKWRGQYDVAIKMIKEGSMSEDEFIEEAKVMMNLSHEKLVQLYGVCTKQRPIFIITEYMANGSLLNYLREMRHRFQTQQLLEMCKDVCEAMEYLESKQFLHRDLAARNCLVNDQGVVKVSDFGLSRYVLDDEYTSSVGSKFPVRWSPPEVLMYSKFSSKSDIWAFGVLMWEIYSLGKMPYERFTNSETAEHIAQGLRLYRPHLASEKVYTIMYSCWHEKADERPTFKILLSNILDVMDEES
T2 sequence (Q06187 whole entry): as the sequence (Q06187 whole entry C481S) above, with S481C counted along it
T1 sequence (P00519 whole entry): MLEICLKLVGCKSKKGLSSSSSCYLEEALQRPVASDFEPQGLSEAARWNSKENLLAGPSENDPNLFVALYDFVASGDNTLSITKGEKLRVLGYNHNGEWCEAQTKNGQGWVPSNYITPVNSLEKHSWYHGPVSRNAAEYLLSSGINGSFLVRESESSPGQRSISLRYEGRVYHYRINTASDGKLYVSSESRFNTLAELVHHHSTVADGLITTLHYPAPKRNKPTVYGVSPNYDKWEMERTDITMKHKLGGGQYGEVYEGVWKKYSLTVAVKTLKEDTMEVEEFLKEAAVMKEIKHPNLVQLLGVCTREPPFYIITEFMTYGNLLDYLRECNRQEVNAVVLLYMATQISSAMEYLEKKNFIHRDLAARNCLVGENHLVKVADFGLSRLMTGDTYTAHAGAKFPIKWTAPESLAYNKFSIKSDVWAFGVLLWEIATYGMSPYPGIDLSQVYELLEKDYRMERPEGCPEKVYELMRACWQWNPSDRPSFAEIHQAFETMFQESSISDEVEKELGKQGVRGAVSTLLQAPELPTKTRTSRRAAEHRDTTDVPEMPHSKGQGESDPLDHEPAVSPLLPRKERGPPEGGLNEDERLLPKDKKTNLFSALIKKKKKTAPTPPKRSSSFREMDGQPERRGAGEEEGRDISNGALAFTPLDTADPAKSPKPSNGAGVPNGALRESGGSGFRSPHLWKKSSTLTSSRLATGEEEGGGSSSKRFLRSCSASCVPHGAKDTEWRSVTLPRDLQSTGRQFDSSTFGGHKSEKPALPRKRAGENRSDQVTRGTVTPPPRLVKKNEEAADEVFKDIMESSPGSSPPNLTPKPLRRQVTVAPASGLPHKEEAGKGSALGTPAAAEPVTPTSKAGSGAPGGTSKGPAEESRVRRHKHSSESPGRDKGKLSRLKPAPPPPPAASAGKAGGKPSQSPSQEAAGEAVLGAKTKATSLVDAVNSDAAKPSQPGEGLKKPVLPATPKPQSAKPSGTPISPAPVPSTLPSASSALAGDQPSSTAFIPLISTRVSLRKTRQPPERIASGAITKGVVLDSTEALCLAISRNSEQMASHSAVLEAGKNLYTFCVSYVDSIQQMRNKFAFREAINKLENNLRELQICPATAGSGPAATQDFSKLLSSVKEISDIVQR

Row | Clearance (in vitro) [min⁻¹] | CLint scaled at 1 μM (in vitro) [mL/min/kg] | half-life at 1 μM (in vitro) [min] | IC50 (ABL1; ABL1 0.1 nM, ABLtide 20 μM, ATP 10 μM, 15 min compound incubation, 2 h reaction) [pM] | Ratio Dasatinib/the compound of Formula I (ABL1; ratio of IC50 values, ABL1) | IC50 (BTK; BTK 8 nM, pEY 0.2 mg/ml, ATP 10 μM, 15 min compound incubation, 2 h reaction) [pM] | Ratio Dasatinib/the compound of Formula I (BTK; ratio of IC50 values, BTK) | IC50 (BTK (C481S); BTK (C481S) 6 nM, pEY 0.2 mg/ml, ATP 10 μM, 15 min compound incubation, 2 h reaction) [pM] | Ratio Dasatinib/the compound of Formula I (BTK (C481S); ratio of IC50 values, BTK (C481S)) | Compound
1 | 0.0635 | 211 | 10.9 |  |  |  |  |  |  | Cc1nc(Nc2ncc(C(=O)Nc3c(C)cccc3Cl)s2)cc(N2CCN(CCO)CC2)n1 [Dasatinib, reference compound]
2 | 0.0426 | 142 | 16.3 | 4.2 | 5.95 | 157 | 3.32 | 32 | 3.53 | Cc1nc(Nc2ncc(C(=O)Nc3c(C)cc(F)cc3Cl)s2)cc(N2CCN(CCO)CC2)n1 [The compound of Formula I, N-(2-chloro-4-fluoro-6-methylphenyl)-2-[[6-[4-(2-hydroxyethyl)-1-piperazinyl]-2-methyl-4-pyrimidinyl]amino]-5-thiazolecarboxamide]
